According to patent US9115129B2, “Substituted pyrido[2,3-B]pyrazines as IP receptor agonists” (Novartis AG, priority 2012, dated 2015):

Target: T1, IP receptor (Homo sapiens, UniProt P43119)
T1 construct: expressed in transfected cells; host or cells: CHO cells stably expressing the IP receptor (CHO-IP)
Assay: cAMP accumulation in CHO cells stably expressing the IP receptor (CHO-IP), Perkin Elmer AlphaScreen assay
Format: cell-based
Conditions: agonist activity, 1 hour at room temperature
Procedure: Activity of compounds at the IP receptor (IP receptor) is assessed by measuring cAMP accumulation in CHO cells stably expressing the IP receptor (CHO-IP) using the Perkin Elmer AlphaScreen assay. This technology measures the endogenous production of cAMP, in a non-radioactive luminescence proximity homogenous assay. A biological reaction occurs between streptavidin coated donor beads, biotinylated cAMP and anti-cAMP acceptor beads, bringing the donor and acceptor beads close enough together so that upon excitation a fluorescence signal is produced. On production of endogenous cAMP, competition between the biotinylated cAMP and cellular-derived cAMP causes a reduction in the fluorescent signal. The reduction in signal is proportional to the amount of cAMP being produced, thus it is possible to quantify the amount of cAMP being produced on stimulation with agonist.
Test and reference compounds are prepared at 100× [final] in 100% DMSO, and diluted 1:3 using a Biomek Fx (Beckman Coulter). This is followed by an intermediate dilution to give 5× [final] in assay buffer (HBSS containing 5 mM HEPES, 0.1% (w/v) BSA). 5 μL of 5× [final] test compounds, reference compounds and buffer/DMSO control are then transferred to a 384-well white OptiPlate, containing 20 μL CHO-IP cell suspension (15,000 cells/well, prepared from frozen), and plate is incubated at room temperature for 1 hour. A cAMP standard curve is constructed for each experiment (concentration range of 10000 nM to 0.001 nM, in assay buffer) and 25 μL of each concentration added to the last two columns of the assay plate. The incubation is terminated by the addition of lysis buffer (dH2O; 0.3% (v v^−1) Tween-20) containing 20 units mL^−1 streptavidin coated donor beads and biotinylated cAMP (pre-incubated for 30 minutes) and 20 units mL^−1 anti-cAMP acceptor beads, which are added to the lysis buffer just before addition to the assay plate. The assay plate is then incubated at room temperature in the dark, for 60 minutes with gentle shaking, and read on the Envision plate reader (Perkin Elmer).
The raw data of the reference compounds, test compounds and controls are converted into cAMP concentrations, using the cAMP standard curve, in Graph Pad Prism (Graph Pad Software Inc). EC50 as well as maximal values of the agonist curves are determined using a 4-parameter logistic equation. The % maximum response values of all test compounds are determined using the top of the treprostinil concentration-response curve.

T1 sequence (P43119 whole entry): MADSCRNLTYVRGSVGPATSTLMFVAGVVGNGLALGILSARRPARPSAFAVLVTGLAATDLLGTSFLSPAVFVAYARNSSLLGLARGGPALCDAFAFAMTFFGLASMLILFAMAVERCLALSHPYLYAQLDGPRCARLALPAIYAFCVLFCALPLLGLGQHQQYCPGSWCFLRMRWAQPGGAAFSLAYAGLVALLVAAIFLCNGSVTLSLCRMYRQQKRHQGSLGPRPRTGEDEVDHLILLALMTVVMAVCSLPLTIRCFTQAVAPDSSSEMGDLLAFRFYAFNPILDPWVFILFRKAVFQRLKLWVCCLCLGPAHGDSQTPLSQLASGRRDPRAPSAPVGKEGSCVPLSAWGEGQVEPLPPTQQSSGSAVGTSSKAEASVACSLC

| Structure (SMILES) | EC50 |
| --- | --- |
| Cc1ccc(-c2nc3c(nc2-c2ccc(C)cc2)N(CCCCCC(=O)O)CCC3)cc1 [Example 10, 6-(2,3-Di-p-tolyl-7,8-dihydropyrido[2,3-b]pyrazin-5(6H)-yl)hexanoic acid] | 0.3 nM |
| COC1CCN(CCCCCCC(=O)O)c2nc(-c3ccc(C)cc3)c(-c3ccc(C)cc3)nc21 (racemic) [Example 3.1, rac-7-(8-Methoxy-2,3-di-p-tolyl-7,8-dihydropyrido[2,3-b]pyrazin-5(6H)-yl)heptanoic acid] | 0.8 nM |
| Cc1ccc(-c2nc3c(nc2-c2ccccc2C)CCCN3CCCCCCC(=O)O)cc1 [Example 2.6, 7-(2-o-Tolyl-3-p-tolyl-7,8-dihydropyrido[3,2-b]pyrazin-5(6H)-yl)heptanoic acid] | 0.6 nM |
| Cc1ccc(-c2nc3c(nc2-c2ccc(C)nc2)N(CCCCCCC(=O)O)CCC3)cc1 [Example 7, 7-(3-(6-Methylpyridin-3-yl)-2-p-tolyl-7,8-dihydropyrido[2,3-b]pyrazin-5(6H)-yl)heptanoic acid] | 0.2 nM |
| Cc1ccc(-c2nc3c(nc2-c2ccc(C)cc2)N(CCCCC(O)CC(=O)O)CCC3)cc1 (racemic) [Example 17, rac-7-(2,3-Di-p-tolyl-7,8-dihydropyrido[2,3-b]pyrazin-5(6H)-yl)-3-hydroxyheptanoic acid] | 1.8 nM |
| Cc1ccc(-c2nc3c(nc2-c2ccccc2F)CCCN3CCCCCCC(=O)O)cc1 [Example 2.7, 7-(2-(2-Fluorophenyl)-3-p-tolyl-7,8-dihydropyrido[2,3-b]pyrazin-5(6H)-yl)heptanoic acid] | 0.3 nM |
| CCC1Cc2nc(-c3ccc(C)cc3)c(-c3ccc(C)cc3)nc2N(CCCCCCC(=O)O)C1 (stereo not drawn) [Example 2.1, 7-(7-Ethyl-2,3-di-p-tolyl-7,8-dihydropyrido[2,3-b]pyrazin-5(6H)-yl)heptanoic acid] | 0.4 nM |
| Cc1ccc(-c2nc3c(nc2-c2ccc(C)nc2)N(CCCCCCC(=O)O)CCC3)cn1 [Example 5, 7-(2,3-Bis(6-methylpyridin-3-yl)-7,8-dihydropyrido[2,3-b]pyrazin-5(6H)-yl)heptanoic acid] | 11.7 nM |
| Cc1ccc(-c2nc3c(nc2-c2ccc(C)cc2)N(CCCCCCCC(=O)O)C(=O)CC3)cc1 [Example 1.2, 8-(6-Oxo-2,3-di-p-tolyl-7,8-dihydropyrido[2,3-b]pyrazin-5(6H)-yl)octanoic acid] | 1.9 nM |
| COc1ccc(-c2nc3c(nc2-c2ccc(C)cc2)N(CCCCCCC(=O)O)CCC3)cc1 [Example 2.10, 7-(2-(4-Methoxyphenyl)-3-p-tolyl-7,8-dihydropyrido[2,3-b]pyrazin-5(6H)-yl)heptanoic acid] | 0.4 nM |
| Cc1ccc(-c2nc3c(nc2-c2ccc(C)cc2)C(C)(O)CCN3CCCCCCC(=O)O)cc1 (stereo not drawn) [Example 16, 7-(8-Hydroxy-8-methyl-2,3-di-p-tolyl-7,8-dihydropyrido[2,3-b]pyrazin-5(6H)-yl)heptanoic acid] | 0.4 nM |
| Cc1ccc(-c2nc3c(nc2-c2ccccc2)CC(C)CN3CCCCCCC(=O)O)cc1 (stereo not drawn) [Example 2.2, 7-(7-Methyl-2-phenyl-3-(p-tolyl)-7,8-dihydropyrido[2,3-b]pyrazin-5(6H)-yl)heptanoic acid] | 0.1 nM |
| Cc1ccc(-c2nc3c(nc2-c2ccccc2C)N(CCCCCCC(=O)O)CCC3)cc1 [Example 2.5, 7-(3-o-Tolyl-2-p-tolyl-7,8-dihydropyrido[3,2-b]pyrazin-5(6H)-yl)heptanoic acid] | 3.9 nM |
| Cc1ccc(-c2nc3c(nc2-c2cccc(F)c2)CCCN3CCCCCCC(=O)O)cc1 [Example 2.9, 7-(2-(3-Fluorophenyl)-3-p-tolyl-7,8-dihydropyrido[2,3-b]pyrazin-5(6H)-yl)heptanoic acid] | 0.1 nM |

Now from value to compound:

| EC50 | Structure (SMILES) |
| --- | --- |
| 1.1 nM | COC1(C)CCN(CCCCCCC(=O)O)c2nc(-c3ccc(C)cc3)c(-c3ccc(C)cc3)nc21 (single isomer, unassigned) [Example 15a, (R)-7-(8-Methoxy-8-methyl-2,3-di-p-tolyl-7,8-dihydropyrido[2,3-b]pyrazin-5(6H)-yl)heptanoic acid or (S)-7-(8-Methoxy-8-methyl-2,3-di-p-tolyl-7,8-dihydropyrido[2,3-b]pyrazin-5(6H)-yl)heptanoic acid] |
| 55.6 nM | Cc1ccc(-c2nc3c(nc2-c2ccc(C)cc2)N(CCCCCC(=O)NO)CCC3)cc1 [Example 12.10, 6-(2,3-Di-p-tolyl-7,8-dihydropyrido[2,3-b]pyrazin-5(6H)-yl)-N-hydroxyhexanamide] |
| 12.1 nM | CNC(=O)CCCCCCN1CCCc2nc(-c3ccc(C)cc3)c(-c3ccc(C)cc3)nc21 [Example 12.4, 7-(2,3-Di-p-tolyl-7,8-dihydropyrido[2,3-b]pyrazin-5(6H)-yl)-N-methylheptanamide] |
| 75.9 nM | Cc1ccc(-c2nc3c(nc2-c2ccc(C)cc2)N(CCCCCCC(=O)N(C)C)CCC3)cc1 [Example 12.7, 7-(2,3-Di-p-tolyl-7,8-dihydropyrido[2,3-b]pyrazin-5(6H)-yl)-N,N-dimethylheptanamide] |
| 3.6 nM | Cc1ccc(-c2nc3c(nc2-c2ccc(C)cc2)N(CCCC[C@@H](O)CC(=O)O)CCC3)cc1 (single isomer, unassigned) [Example 17a, (R)-7-(2,3-Di-p-tolyl-7,8-dihydropyrido[2,3-b]pyrazin-5(6H)-yl)-3-hydroxyheptanoic acid or (S)-7-(2,3-Di-p-tolyl-7,8-dihydropyrido[2,3-b]pyrazin-5(6H)-yl)-3-hydroxyheptanoic acid] |
| 510 nM | Cc1ccc(-c2nc3c(nc2-c2ccc(C)cc2)N(CCCCCCC(=O)NS(=O)(=O)Cc2ccccc2)CCC3O)cc1 (single isomer, unassigned) [Example 13.2, (R)—N-(benzylsulfonyl)-7-(8-hydroxy-2,3-di-p-tolyl-7,8-dihydropyrido[3,2-b]pyrazin-5(6H)-yl)heptanamide or (S)—N-(benzylsulfonyl)-7-(8-hydroxy-2,3-di-p-tolyl-7,8-dihydropyrido[3,2-b]pyrazin-5(6H)-yl)heptanamide] |
| 8 nM | Cc1ccc(-c2nc3c(nc2-c2ccc(C)cc2)N(CCCCCCC(=O)N(C)O)CCC3)cc1 [Example 12.8, 7-(2,3-Di-p-tolyl-7,8-dihydropyrido[2,3-b]pyrazin-5(6H)-yl)-N-hydroxy-N-methylheptanamide] |
| 3.6 nM | COC1(C)CCN(CCCCCCC(=O)O)c2nc(-c3ccc(C)cc3)c(-c3ccc(C)cc3)nc21 (single isomer, unassigned) [Example 15b, (R)-7-(8-Methoxy-8-methyl-2,3-di-p-tolyl-7,8-dihydropyrido[2,3-b]pyrazin-5(6H)-yl)heptanoic acid or (S)-7-(8-Methoxy-8-methyl-2,3-di-p-tolyl-7,8-dihydropyrido[2,3-b]pyrazin-5(6H)-yl)heptanoic acid] |
| 0.4 nM | Cc1ccc(-c2nc3c(nc2-c2ccc(C)cc2)N(CCCCCCC(=O)NO)CCC3)cc1 [Example 12.9, 7-(2,3-Di-p-tolyl-7,8-dihydropyrido[2,3-b]pyrazin-5(6H)-yl)-N-hydroxyheptanamide] |
| 40.7 nM | Cc1ccc(-c2nc3c(nc2-c2ccc(C)cc2)N(CCCCCCC(=O)Nc2ccccc2)CCC3)cc1 [Example 12.5, 7-(2,3-Di-p-tolyl-7,8-dihydropyrido[2,3-b]pyrazin-5(6H)-yl)-N-phenylheptanamide] |
